Reference: the supplement of paper PMC12317010

Assay: collision cross section in nitrogen (drift tube, single-field); higher = larger gas-phase ion size
[1] = ion type: [M-H], ion source: ESI, ion mode: Negative
[2] = ion type: [M+H], ion source: ESI, ion mode: Positive
[3] = ion type: [M+Na], ion source: ESI, ion mode: Positive
[4] = ion type: [M+H], ion source: APCI, ion mode: Positive
[5] = ion type: [M+], ion source: APCI, ion mode: Positive
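Further: chemical standards at 10 µM analysed by drift tube IMS-QTOF MS in about 3.95 torr nitrogen, mean of duplicate injections differing ≤1%, mass error below 10 ppm.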

SMILES	collision cross section in nitrogen [1] [Å²]	collision cross section in nitrogen [2] [Å²]	further results
Nc1c(Cl)cc(Cl)cc1[N+](=O)[O-] [2,4-Dichloro-6-nitroaniline]	131.4	–	–
Oc1ccc(Cl)cc1Cl [2,4-Dichlorophenol]	123.6	–	–
O=[N+]([O-])c1ccc(O)c([N+](=O)[O-])c1 [2,4-Dinitrophenol]	127.8	–	–
O=c1[nH]cc(S(=O)(=O)Cl)c(=O)[nH]1 [2,4-Dioxo-1,2,3,4-tetrahydropyrimidine-5-sulfonyl chloride]	–	140.8	–
COCCOCCOCCOCCOC [2,5,8,11,14-Pentaoxapentadecane]	–	–	collision cross section in nitrogen [3]: 147.3 Å²
CC(C)(C)c1cc(O)c(C(C)(C)C)cc1O [2,5-Di-tert-butylbenzene-1,4-diol]	–	–	collision cross section in nitrogen [5]: 155.1 Å²
Oc1cc(Cl)ccc1Cl [2,5-Dichlorophenol]	123.3	–	–
CCC(C)c1cccc(C(C)CC)c1O (stereo unspecified) [2,6-Di(butan-2-yl)phenol]	151.4	–	–
CC(C)(C)c1cc([N+](=O)[O-])cc(C(C)(C)C)c1O [2,6-Di-tert-butyl-4-nitrophenol]	162.2	–	–
Nc1c(Br)cc([N+](=O)[O-])cc1Br [2,6-Dibromo-4-nitroaniline]	134.9	–	–
Nc1cc(Cl)c(N)c(Cl)c1 [2,6-Dichloro-1,4-benzenediamine]	–	135.5	collision cross section in nitrogen [5]: 128.1 Å²
CC(C)c1cccc(C(C)C)c1N [2,6-Diisopropylaniline]	–	–	collision cross section in nitrogen [4]: 146.6 Å²
CCCCCCCCCCCCCN1CC(C)OC(C)C1 (stereo unspecified) [2,6-Dimethyl-4-tridecylmorpholine]	–	183.5	–
Cc1cccc2sc3nncn3c12 [2,7,8,9-Tricyclazole]	–	134	collision cross section in nitrogen [4]: 136.3 Å²; collision cross section in nitrogen [3]: 153.5 Å²
CC(C)(C)c1cc(-n2nc3ccccc3n2)c(O)c(C(C)(C)C)c1 [2-(2'-Hydroxy-3',5'-di-tert-butylphenyl)benzotriazole]	192.5	–	collision cross section in nitrogen [5]: 186 Å²
CCCCOCCOCCO [2-(2-Butoxyethoxy)ethanol]	–	–	collision cross section in nitrogen [3]: 141.5 Å²
C=CC(=O)OCCOCCOCC [2-(2-Ethoxyethoxy)ethyl acrylate]	–	–	collision cross section in nitrogen [3]: 142.6 Å²
CCC(C)c1cc(C(C)(C)C)cc(-n2nc3ccccc3n2)c1O (stereo unspecified) [2-(2H-Benzotriazol-2-yl)-6-(butan-2-yl)-4-tert-butylphenol]	192.5	–	collision cross section in nitrogen [4]: 187.2 Å²
Cc1cc(Cl)ccc1OCC(=O)O [2-(4-Chloro-2-methylphenoxy)acetic acid]	146.1	–	–
CC(C)(C)c1ccc(OC2CCCCC2O)cc1 (stereo unspecified) [2-(4-tert-Butylphenoxy)cyclohexanol]	–	–	collision cross section in nitrogen [3]: 179.8 Å²
C=C(C)C(=O)OCCOC(=O)CC(C)=O [2-(Methacryloyloxy)ethyl acetoacetate]	–	–	collision cross section in nitrogen [3]: 147.6 Å²
C=CC(=O)NC(C)(C)CS(=O)(=O)O [2-Acrylamido-2-methyl-1-propanesulfonic acid]	141.5	–	–
C=CCOCC(CC)(CO)CO [2-Allyloxymethyl-2-ethylpropanediol]	–	–	collision cross section in nitrogen [3]: 141.3 Å²
C=CCc1ccccc1O [2-Allylphenol]	128.1	–	–

Continued, in another order:

collision cross section in nitrogen [1] [Å²]	collision cross section in nitrogen [2] [Å²]	SMILES	further results
–	171.9	O=C(Nc1ccc2ccccc2c1)c1ccc(Cl)cc1Cl [2,4-Dichloro-N-(naphthalene-2-yl)benzamide]	collision cross section in nitrogen [3]: 184.5 Å²
148.3	–	O=C(c1ccccc1)c1ccc(O)cc1O [2,4-Dihydroxybenzophenone]	–
118.5	120.2	Oc1ccnc(O)c1 [2,4-Dihydroxypyridine]	collision cross section in nitrogen [4]: 119.5 Å²
146.7	–	CC(C)c1ccc(O)c(C(C)C)c1 [2,4-Diisopropylphenol]	–
138.3	–	Cc1ccc(S(=O)(=O)O)c(C)c1 [2,4-Dimethylbenzenesulfonic acid]	–
–	145	COc1cc(Cl)c(OC)cc1N [2,5-Dimethoxy-4-chloroaniline]	collision cross section in nitrogen [5]: 133 Å²
138.2	–	Cc1ccc(C)c(S(=O)(=O)O)c1 [2,5-Dimethylbenzenesulfonic acid monohydrate]	–
138.2	–	Cc1ccc(C)c(S(=O)(=O)O)c1 [2,5-Dimethylbenzenesulfonic acid]	–
160.4	–	COc1cc(C(C)(C)C)c(O)c(C(C)(C)C)c1 [2,6-Di-tert-butyl-4-methoxyphenol]	collision cross section in nitrogen [5]: 157.2 Å²
–	119.8	Nc1cccc(N)n1 [2,6-Diaminopyridine]	collision cross section in nitrogen [4]: 118.9 Å²
174.7	175.7	CC(=O)Nc1ccc2c(c1)Cc1cc(NC(C)=O)ccc1-2 [2,7-Acetylaminofluorene]	collision cross section in nitrogen [4]: 176.3 Å²; collision cross section in nitrogen [3]: 180.9 Å²; collision cross section in nitrogen [5]: 167.4 Å²
138.6	–	CCCC(C)c1ccccc1O (stereo unspecified) [2-(1-Methylbutyl)phenol]	–
182	–	CC(C)c1cccc(C(C)C)c1N1C(=O)c2ccc(O)cc2C1=O [2-(2,6-Diisopropylphenyl)-5-hydroxy-1H-isoindole-1,3-dione]	–
–	121.2	OCCc1ccccn1 [2-(2-Pyridyl)ethanol]	collision cross section in nitrogen [4]: 120.7 Å²
155.4	–	Cc1ccc(O)c(-n2nc3ccccc3n2)c1 [2-(2H-Benzotriazol-2-yl)-4-methylphenol]	–
–	141.1	c1ccc(CCCc2ccccn2)cc1 [2-(3-Phenylpropyl)pyridine]	collision cross section in nitrogen [4]: 140.8 Å²
174.2	171.7	Cc1ccc2nc(-c3ccc(N)cc3)sc2c1S(=O)(=O)O [2-(4-Aminophenyl)-6-methylbenzothiazole sulfonic acid]	collision cross section in nitrogen [3]: 185.9 Å²
–	145.5	Cc1ccc(-c2nc3ccccc3o2)cc1 [2-(4-Methylphenyl)-1,3-benzoxazole]	collision cross section in nitrogen [4]: 145.3 Å²
196.6	199.8	CCCCCCCCC=CCCCCCCCC1=NCCN1CCO [2-(8-Heptadecenyl)-2-imidazoline-1-ethanol]	collision cross section in nitrogen [4]: 199.3 Å²
–	162.2	CN(C)Cc1ccccc1O [2-((Dimethylamino)methyl)phenol]	–
–	140.6	CCN(CCO)c1cccc(C)c1 [2-(N-Ethyl-m-toluidino)ethanol]	collision cross section in nitrogen [4]: 140 Å²
151.8	–	Nc1ccccc1S(=O)(=O)c1ccccc1 [2-(Phenylsulfonyl)aniline]	–
–	124.3	OCCc1ccncc1 [2-(Pyridin-4-yl)ethanol]	collision cross section in nitrogen [4]: 124.6 Å²
